The values below come from a flash point compilation (Sun et al. 2020).

The structures appear in SMILES notation.

With `Cc1cccc(C)c1C` [1,2,3-trimethylbenzene], the flash point amounted to 44.00 °C. On the same count and under the same terms, to `Cc1cc(C)cc(C)c1` [1,3,5-trimethylbenzene] belongs 50.00 °C. For the compound `CNCCO` [2-(methylamino)ethanol], the flash point was 74.00 °C.

In turn, `C1CCCCC1` [cyclohexane] came in with a flash point of -20.00 °C.

Compound `CCCCCCCCCCCC` [dodecane] came in with a flash point of 74.00 °C. Compound `CCCCCC` [hexane] displayed a flash point of -23.00 °C. The same measure, in the same setting: in the case of `Cc1ccccc1` [toluene] it was 4.00 °C.

This is another data set of the same source.
Compound `Cc1cccc(C)c1C` [1,2,3-trimethylbenzene] registered a flash point of 51 °C. Still for that read-out and setting: in the case of `Cc1cc(C)cc(C)c1` [1,3,5-trimethylbenzene] it was 44 °C; in that of `CNCCO` [2-(methylamino)ethanol], 72 °C. Same read-out and setting: in the case of `C1CCCCC1` [cyclohexane] it was -18 °C; in that of `CCCCCCCCCCCC` [dodecane], 71 °C. For `CCCCCC` [hexane], the flash point is -26 °C. The same measure, in the same setting: in the case of `CCCCC#N` [pentanenitrile] it was 32 °C. On the same count and under the same terms, to `CCCCC(=O)OC(=O)CCCC` [pentanoicanhydride] belongs 101 °C. Still for that read-out and setting: in the case of `CCCCCOC(C)=O` [pentylacetate] it was 39 °C; in that of `CCCCCOC(=O)c1ccccc1` [pentylbenzoate], 120 °C; in that of `CCCCCOC(=O)CC` [pentylpropanoate], 53 °C. In turn, `CC(=O)C(C)(C)C` [pinacolone] displayed a flash point of 5 °C. The same measure, in the same setting: in the case of `CC(C)(C)C(=O)OC(=O)C(C)(C)C` [pivalicanhydride] it was 63 °C.

Turning to `CCC=O` [propanal], the flash point was -27 °C. The same measure, in the same setting: to `CCCOC(=O)C(C)C` [propyl2-methylpropanoate] belongs 30 °C. `CCCOC(=O)CCC` [propylbutanoate]: the flash point came to 35 °C.

For the compound `C=C(C)C(=O)OCCC` [propylmethacrylate], the flash point stood at 35 °C. Same read-out and setting: in the case of `CCCOC(=O)CC` [propylpropanoate] it was 22 °C. Still for that read-out and setting: in the case of `C=COCCC` [propylvinylether] it was -22 °C; in that of `c1ccncc1` [pyridine], 17 °C; in that of `CCC(C)N` (stereo not given) [sec-butylamine], -19 °C.

For `CC(=O)OC(C)(C)C` [tert-butylacetate], the flash point worked out at 4 °C.

In the case of `CC(C)(C)O` [tert-butylalcohol], the flash point was 11 °C. The same measure, in the same setting: in the case of `CC(C)(C)N` [tert-butylamine] it was -38 °C; in that of `CC(C)(C)c1ccccc1` [tert-butylbenzene], 44 °C. In the case of `CC(C)(C)OC=O` [tert-butylformate], the flash point was -9 °C.

Compound `CSC(C)(C)C` [tert-butylmethylsulfide] yielded a flash point of -3 °C. For `C=COC(C)(C)C` [tert-butylvinylether], the flash point is -17 °C. The compound `C1CCOC1` [tetrahydrofuran] had a flash point of -21 °C. On the same count and under the same terms, to `Cc1ccccc1` [toluene] belongs 7 °C; to `C[C@H]1CC[C@H](C)CC1` [trans-1,4-dimethylcyclohexane], 6 °C. `C/C=C/CCCCC` [trans-2-octene] came in with a flash point of 14 °C. Still for that read-out and setting: to `C/C=C/CC` [trans-2-pentene] belongs -45 °C; to `CC/C=C/CCC` [trans-3-heptene], -7 °C; to `C[C@H]1CC[C@H](O)CC1` [trans-4-methylcyclohexanol], 70 °C. On the same count and under the same terms, to `CCC/C=C/CCC` [trans-4-octene] belongs 8 °C; to `C1CC[C@H]2CCCC[C@@H]2C1` [trans-decalin], 53 °C; to `CCOC(OCC)OCC` [triethoxymethane], 35 °C. Still for that read-out and setting: to `CCCN(CCC)CCC` [tripropylamine] belongs 35 °C. In the case of `CCCCCCCCCCC=O` [undecanal], the flash point came out at 95 °C.

As to `C=COC(=O)CCC` [vinylbutanoate], the flash point is 20 °C. Same read-out and setting: to `C=CC1CCCCC1` [vinylcyclohexane] belongs 21 °C; to `C=COC(=O)CC` [vinylpropanoate], 6 °C.

This is another data set of the same source.
On to `ClCC(Cl)(Cl)Cl` [1,1,1,2-tetrachloroethane], for which the flash point turned out to be 47 °C.

Consider `C=C(Cl)Cl` [1,1-dichloroethylene], for which the flash point was -25 °C.

`CCC(O)CO` (stereo not given) [1,2-butanediol]: the flash point came to 93 °C. The same measure, in the same setting: in the case of `Clc1ccccc1Cl` [1,2-dichlorobenzene] it was 67 °C; in that of `CCC(Cl)CCl` (stereo not given) [1,2-dichlorobutane], 26 °C. `CC1CCCCC1C` (stereo not given) [1,2-dimethylcyclohexane] displayed a flash point of 15 °C.

Turning to `SCCS` [1,2-ethanedithiol], the flash point is 50 °C. Same read-out and setting: in the case of `CC(N)CN` (stereo not given) [1,2-propanediamine] it was 33 °C; in that of `NCCCN` [1,3-propanediamine], 48 °C; in that of `OCCCO` [1,3-propanediol], 131 °C. The same measure, in the same setting: to `OCCCCO` [1,4-butanediol] belongs 135 °C. Turning to `N#CCCCCC#N` [1,4-dicyanobutane], the flash point came to 159 °C. Still for that read-out and setting: in the case of `CC1CCC(C)CC1` (stereo not given) [1,4-dimethylcyclohexane] it was 10 °C; in that of `C=CCCC=C` [1,5-hexadiene], -27 °C. The same measure, in the same setting: to `OCCCCCO` [1,5-pentanediol] belongs 136 °C; to `SCCCCCS` [1,5-pentanedithiol], 95 °C; to `CCCCCBr` [1-bromopentane], 31 °C.

`CCc1ccc(Cl)cc1` [1-chloro-4-ethylbenzene]: the flash point was found to be 64 °C. Same read-out and setting: in the case of `CCCCCCCCl` [1-chloroheptane] it was 41 °C; in that of `CC(=O)C1CC1` [1-cyclopropylethanone], 13 °C; in that of `CCCCCCCF` [1-fluoroheptane], 13 °C.

In turn, `CCCCCCI` [1-iodohexane] had a flash point of 67 °C. In turn, `CCCCOC` [1-methoxybutane] showed a flash point of -10 °C. Turning to `CN1CCCC1=O` [1-methyl-2-pyrrolidinone], the flash point came out at 86 °C. `Cc1cccc2ccccc12` [1-methylnaphthalene]: the flash point amounted to 82 °C. On the same count and under the same terms, to `Cn1cccc1` [1-methylpyrrole] belongs 15 °C; to `CN1CCCC1` [1-methylpyrrolidine], -18 °C; to `CCCCCCCCS` [1-octanethiol], 69 °C. Same read-out and setting: to `C=CCCCCCC` [1-octene] belongs 21 °C. `CC(C)(Cl)Cl` [2,2-dichloropropane] gave a flash point of -5 °C. In turn, `CC(C)(C)C#N` [2,2-dimethylpropanenitrile] displayed a flash point of 4 °C.

With `Cc1cc(C)nc(C)c1` [2,4,6-trimethylpyridine], the flash point is 57 °C. On the same count and under the same terms, to `CC(=O)CC(C)=O` [2,4-pentanedione] belongs 34 °C; to `COC1C=CC(OC)O1` (stereo not given) [2,5-dimethoxy-2,5-dihydrofuran], 51 °C; to `CC(O)CCC(C)O` (stereo not given) [2,5-hexanediol], 101 °C.

For the compound `C1=CC2C=CC1C2` [2,5-norbornadiene], the flash point was -11 °C. `CC(C)(N)CO` [2-amino-2-methyl-1-propanol] came in with a flash point of 67 °C. On the same count and under the same terms, to `COC(CBr)OC` [2-bromo-1,1-dimethoxyethane] belongs 53 °C; to `CC=CC#N` [2-butenenitrile], 20 °C; to `CC(C)(C)Cl` [2-chloro-2-methylpropane], -27 °C.

Turning to `O=C1C=CCCC1` [2-cyclohexen-1-one], the flash point amounted to 34 °C.

Take `CN(C)CCO` [2-dimethylaminoethanol]: the flash point amounted to 40 °C. Still for that read-out and setting: in the case of `CCCCC(C=O)CC` (stereo not given) [2-ethylhexanal] it was 46 °C; in that of `C=CC(=O)OCC(CC)CCCC` (stereo not given) [2-ethylhexyl acrylate], 86 °C.

Turning to `CCC1=NCCO1` [2-ethyloxazoline], the flash point worked out at 29 °C.

On to `CCC(C)I` (stereo not given) [2-iodobutane], for which the flash point stood at 23 °C. Still for that read-out and setting: in the case of `CC(C)OCCO` [2-isopropoxyethanol] it was 43 °C. On the same count and under the same terms, in the case of `CC(C)C=O` [2-methyl-1-propanal] it was -25 °C. Still for that read-out and setting: to `CCC(C)(C)O` [2-methyl-2-butanol] belongs 21 °C; to `CNCCO` [2-methylaminoethanol], 71 °C; to `CC1CCCCC1O` (stereo not given) [2-methylcyclohexanol], 58 °C. Compound `Cc1ccc2ccccc2c1` [2-methylnaphthalene] had a flash point of 97 °C.

Regarding `CC1CCCO1` (stereo not given) [2-methyltetrahydrofuran], the flash point was -11 °C. The same measure, in the same setting: in the case of `Cc1cccs1` [2-methylthiophene] it was 7 °C; in that of `CCCCCCCC(C)=O` [2-nonanone], 69 °C. The compound `CCCCCCC(C)=O` [2-octanone] came in with a flash point of 62 °C. `CCCC(C)O` (stereo not given) [2-pentanol]: the flash point stood at 40 °C.

`CC(C)(C)c1ccco1` [2-t-butylfuran]: the flash point was 7 °C. The same measure, in the same setting: to `CCCCCCCCCC(C)O` (stereo not given) [2-undecanol] belongs 107 °C; to `CCCCCCCCCC(C)=O` [2-undecanone], 89 °C. Same read-out and setting: in the case of `CC(C)(C)CC(=O)O` [3,3-dimethylbutanoic acid] it was 88 °C; in that of `C=CCC#N` [3-butenenitrile], 21 °C; in that of `CCCCOCCCN` [3-butoxypropylamine], 63 °C.

`C=CCI` [3-iodo-1-propene] registered a flash point of 18 °C. In turn, `C=CC(C)C` [3-methyl-1-butene] showed a flash point of -57 °C.
